Source: publication PMC9404989, “Design and Evaluation of Short Bovine Lactoferrin-Derived Antimicrobial Peptides against Multidrug-Resistant Enterococcus faecium” (Antibiotics, 2022)
“And” between values parts separate entries of the source, which are not always exact repeats. Equal entries are not always repeated. No end group written: not given here.

Experiments:
[1] = system: E. faecium D14; assay: microbe, parasite or virus in culture; assay type: cell-based, Enterococcus faecium; settings: ampicillin resistant, vancomycin-sensitive isolate
Description: (§1) To determine the MICs of peptides, we used the broth microdilution method described by the Clinical and Laboratory Standards Institute. We made serial dilutions of 10× concentration (10 µL) for each peptide in duplicates in 96-well plates (Cat No. 3595, Corning, New York, NY, USA). We added 90 µL of logarithmic-phase bacteria at 5 × 10^5 CFU/mL (in BHI media) to the peptides and then incubated the plates at 37 °C for 18 h. We measured the OD600 absorbance readings using the Spectra Max i3x spectrophotometer (Molecular Devices, San Jose, CA, USA) and determined the MIC as the peptide concentration that inhibits the growth of bacteria.

[2] = system: E. faecium D24; assay: microbe, parasite or virus in culture; assay type: cell-based, Enterococcus faecium; settings: ampicillin resistant, vancomycin-sensitive isolate
Description: as §1

[3] = system: E. faecium D25; assay: microbe, parasite or virus in culture; assay type: cell-based, Enterococcus faecium; settings: ampicillin resistant, vancomycin-sensitive isolate
Description: as §1

[4] = system: E. faecium D29; assay: microbe, parasite or virus in culture; assay type: cell-based, Enterococcus faecium; settings: ampicillin resistant, vancomycin-sensitive isolate
Description: as §1

[5] = system: E. faecium E007; assay: microbe, parasite or virus in culture; assay type: cell-based, Enterococcus faecium; settings: tetracycline-resistant strain
Description: as §1

[6] = system: E. faecium strain C68; assay: microbe, parasite or virus in culture; assay type: cell-based, Enterococcus faecium; settings: strain C68, 18 h
Description: as §1

[7] = system: E. faecium strain C68; assay: microbe, parasite or virus in culture; assay type: cell-based, Enterococcus faecium; settings: strain C68, 18 h; remark: listed apart in the source
Description: as §1
To investigate the activity of peptides in various salt concentrations, we included physiologically relevant salts in the BHI medium.

[8] = system: E. faecalis OG1RF; assay: MIC assay, E. faecalis OG1RF; assay type: cell-based; settings: rifampin and fusidic acid resistant
Description: as §1

[9] = system: E. faecium C68 biofilm formation; assay: Prevention of E. faecium biofilm formation (XTT, crystal violet); assay type: cell-based, Enterococcus faecium; settings: for biomass depleted / biofilm formation inhibited: at 32 µg/mL, biofilm formation stage
Description: We evaluated the ability of the lactoferrin-derived peptides to inhibit biofilm formation following an established protocol with modifications. In short, we prepared exponential cultures of E. faecium C68 (adjusted to OD600 = 0.01) in BHI media (supplemented with 0.2% glucose) from overnight grown cultures. We added 90 µL of the bacterial culture to 10 µL of serially diluted 10× peptide solution in flat-bottomed 96-well polystyrene microtiter plates (Cat No. 3595, Corning, NY, USA) and then incubated the plates at 37 °C for 24 h. We considered media containing bacteria and water as the positive control, while media with water served as the negative control. After incubation, we carefully pipetted out the media and washed the wells with PBS (Gibco, Waltham, MA, USA) to remove loosely attached planktonic cells. We quantified the biomass by staining the biofilms with crystal violet following an established protocol and quantitated the concentration of peptide that inhibits 50% of biofilm formation (MBIC50). Furthermore, we measured the live cell count of the biofilms using XTT [2,3-bis(2-methyloxy-4-nitro-5-sulfophenyl)-2H-tertazolium-5-carboxanilide] dye (ATCC, Manassas, VA, USA). We calculated the percentage of biofilm growth by assuming that there was 100% biofilm growth in wells with bacteria without peptide treatment.

[10] = system: E. faecium E007 established biofilms; assay type: cell-based, Enterococcus faecium; settings: for concentration killing 50% of live bacteria cells in established biofilms: strain E007, 24 h established biofilms, XTT; for established biomass disrupted: strain E007, at 32 µg/mL; for MBEC50: strain E007, biomass by CV
[11] = system: E. faecium strain C68 persister and exponential cells; assay: SYTOX Green membrane permeability assay; assay type: cell-based, Enterococcus faecium; settings: for SYTOX membrane permeabilization of exponential cells: 16 µg/mL; for SYTOX membrane permeabilization of persister cells: peptides at 16 µg/mL, fluorescence, 1 h
Description: We generated E. faecium strain C68 persister cells (described in the above section) and diluted them in PBS to OD600 = 0.2. We added SYTOX Green (Molecular Probes, Life Technologies, Eugene, OR, USA) to the diluted persister suspension to a final concentration of 5 μM and incubated them for 30 min at room temperature in the dark. We added 90 µL of the dye/bacteria mixture to 10 μL of serially diluted 10× peptide concentration in a 96-well black, clear-bottom plate (Cat No. 3904, Corning, NY, USA) and recorded fluorescence on a SpectraMax i3x (Molecular Devices, San Jose, CA, USA) with excitation and emission wavelengths of 485 nm and 525 nm, respectively, for 1 h at room temperature. For comparison, we also conducted membrane permeability assays using exponential cells and followed similar protocol as described for persister cells.

[12] = system: E. faecium strain C68; assay: ATP release assay (luciferase); assay type: cell-based, Enterococcus faecium; settings: 32 µg/mL, 37 °C, 30 min
Description: To determine the ATP leakage potential of the peptides, we employed a luciferase-based assay detailed in [32]. In brief, we washed the exponential phase of E. faecium strain C68 bacteria three times with PBS (pH 7.4) and adjusted it to OD600 = 0.4 in PBS. Following treatment of the bacteria with 32 µg/mL of 5L and 6L peptides at 37 °C for 30 min, we centrifuged the cells at 14,000 rpm for 5 min. We transferred 50 µL of the supernatant of each sample to each well of black, clear-bottom, 96-well plates (Cat No. 3904, Corning, New York, NY, USA) containing 50 µL of BacTiter-Glo reagent (Promega, Madison, WI, USA) and measured plate luminescence after 5 min of incubation at room temperature in the dark with a SpectraMax i3x reader (Molecular Devices, San Jose, CA, USA).

[13] = system: HepG2 cells; assay: Mammalian cell cytotoxicity assay (WST-1); assay type: cell-based, human; settings: 24 h, WST-1, triplicates
Description: We used liver-derived HepG2 cells to evaluate AMP cytotoxicity behavior in mammalian cells based on an established protocol. We maintained the HepG2 cells at 37 °C in 5% CO2 in Dulbecco’s Modified Eagle Medium (DMEM) (Gibco, Waltham, MA, USA) supplemented with 10% fetal bovine serum (FBS) (Gibco, Gaithersburg, MD, USA) and 1% penicillin/streptomycin (Gibco, Gaithersburg, MD, USA). Next, we harvested and resuspended the cells in a fresh medium and distributed 50 µL ([…]) in a 96-well plate containing 50 µL of serially diluted AMPs in serum and antibiotic-free DMEM and incubated the plates at 37 °C in 5% CO2 for 24 h. Before the end of the incubation period (at the 20th hour), we added 10 µL of 2-(4-iodophenyl)-3-(4-nitrophenyl)-5-(2,4-disulfophenyl)-2H-tetrazolium (WST-1) (Roche, Mannheim, Germany) to each well and monitored the reduction of WST-1 at 450 nm using a SpectraMax i3x (Molecular Devices, San Jose, CA, USA). We performed the assays in triplicates and calculated the percentage of cell survival.

| Substance | MIC D14 [1] | MIC D24 [2] | MIC D25 [3] | MIC D29 [4] | MIC E007 [5] | MIC EF C68 [6] | MIC Media Only [6] | MIC + CaCl2 (2.5 mM) [7] | MIC + MgSO4 (1 mM) [7] | MIC + NaCl (150 mM) [7] | MIC + ZnSO4 (8 µM) [7] | MIC E. faecalis OG1RF [8] | biomass depleted / biofilm formation inhibited [9] | concentration killing 50% of live bacteria cells in established biofilms [10] | established biomass disrupted [10] | MBEC50 [10] | SYTOX membrane permeabilization of exponential cells [11] | SYTOX membrane permeabilization of persister cells [11] | ATP leakage (luminescence) [12] | concentration without cell death in HepG2 cells [13] | further results |
| --- | --- | --- | --- | --- | --- | --- | --- | --- | --- | --- | --- | --- | --- | --- | --- | --- | --- | --- | --- | --- | --- |
| RRWLWLRRWLWR-NH2 [Peptide 5L] | 16 µg/mL | 8 µg/mL | 4 µg/mL | 16 µg/mL | 4 µg/mL | 4 µg/mL | 4 µg/mL | 16 µg/mL | 8 µg/mL | 4 µg/mL | 4 µg/mL | > 32 µg/mL | 90% | 8 µg/mL | 75% | 10 µg/mL | enhanced membrane permeabilization | time-dependent fluorescent increment | increased luminescence levels | ≥ 128 µg/mL | – |
| RRWLWRLRWLWR-NH2 [Peptide 6L] | 8 µg/mL | 8 µg/mL | 4 µg/mL | 8 µg/mL | 4 µg/mL | 4 µg/mL | 4 µg/mL | 8 µg/mL | 8 µg/mL | 4 µg/mL | 4 µg/mL | > 32 µg/mL | 90% and 92% | 8 µg/mL | 75% | 8 µg/mL | enhanced membrane permeabilization | time-dependent fluorescent increment | increased luminescence levels | ≥ 128 µg/mL | concentration killing 50% of live bacterial cells during biofilm formation stage ([9]; XTT, 24 h, BHI + 0.2% glucose): 1.2 µg/mL |
